From patent US20260297542A1, “HERBICIDE RESISTANT PLANTS” (SYNGENTA CROP PROTECTION AG, priority 2023, published 2026)
Residue numbers refer to the chain shown, from its start.

Columns and labels:
Test in all cases: E. coli hemG growth inhibition by herbicide, AtPPO1 variant
Assay type in all cases: cell-based
Details in all cases: read-out: percentage growth inhibition
AtPPO1 Y426M = target: T1, AtPPO1 Y426M (Arabidopsis thaliana, UniProt P55826, Y426M)
T1 construct: expressed in transfected cells; host or cells: E. coli BL21(DE3) hemG (pET24a, T7 promoter)
T1 sequence (P55826 35-537 Y426M): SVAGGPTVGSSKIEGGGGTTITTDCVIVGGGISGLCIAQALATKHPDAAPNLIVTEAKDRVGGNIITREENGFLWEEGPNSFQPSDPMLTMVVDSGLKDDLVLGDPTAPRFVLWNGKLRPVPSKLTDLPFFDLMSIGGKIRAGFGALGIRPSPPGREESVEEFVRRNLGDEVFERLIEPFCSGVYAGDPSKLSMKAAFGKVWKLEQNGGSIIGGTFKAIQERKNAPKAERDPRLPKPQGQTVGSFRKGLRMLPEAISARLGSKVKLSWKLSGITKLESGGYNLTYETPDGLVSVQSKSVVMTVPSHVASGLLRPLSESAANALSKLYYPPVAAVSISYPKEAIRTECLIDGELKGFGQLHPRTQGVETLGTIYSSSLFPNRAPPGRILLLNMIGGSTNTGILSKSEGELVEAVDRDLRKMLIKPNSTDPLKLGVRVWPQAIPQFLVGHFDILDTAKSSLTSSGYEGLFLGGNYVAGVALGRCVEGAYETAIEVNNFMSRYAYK
In short: (§1)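 Read-out is OD600 at 24 h post inoculation, converted to percent growth inhibition relative to DMSO. The hemG-deleted BL21(DE3) host relied on the plasmid-borne AtPPO1 variant, induced with 0.1 mM IPTG, with 6.25 ppm herbicide 0 or E or 0.78 ppm herbicide B present at 37° C.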

AtPPO1 V365L = target: T2, AtPPO1 V365L (Arabidopsis thaliana, UniProt P55826, V365L)
T2 construct: expressed in transfected cells; host or cells: E. coli BL21(DE3) hemG (pET24a, T7 promoter)
T2 sequence (P55826 35-537 V365L): T1 sequence (P55826 35-537 Y426M) with V331L, M392Y
In short: as §1

AtPPO1 V127L = target: T3, AtPPO1 V127L (Arabidopsis thaliana, UniProt P55826, V127L)
T3 construct: expressed in transfected cells; host or cells: E. coli BL21(DE3) hemG (hemG replaced by CmR), pET24a plasmid
T3 sequence (P55826 35-537 V127L): T1 sequence (P55826 35-537 Y426M) with V93L, M392Y
In short: as §1

AtPPO1 D448L = target: T4, AtPPO1 D448L (Arabidopsis thaliana, UniProt P55826, D448L)
T4 construct: expressed in transfected cells; host or cells: E. coli BL21(DE3) hemG, pET24a plasmid
T4 sequence (P55826 35-537 D448L): T1 sequence (P55826 35-537 Y426M) with M392Y, D414L
In short: as §1

Compound | inhibition at 6.25 ppm (AtPPO1 Y426M) | inhibition at 6.25 ppm (AtPPO1 V365L) | inhibition at 6.25 ppm (AtPPO1 V127L) | inhibition at 6.25 ppm (AtPPO1 D448L) | inhibition at 0.78 ppm (AtPPO1 Y426M) | inhibition at 0.78 ppm (AtPPO1 V365L) | inhibition at 0.78 ppm (AtPPO1 V127L) | inhibition at 0.78 ppm (AtPPO1 D448L)
CCOC(=O)[C@]1(C)CC(c2cc(-n3c(=O)n(C)c(=S)n(C)c3=O)c(F)cc2Cl)=NO1 [Herbicide D, ethyl (5S)-3-[2-chloro-5-(3,5-dimethyl-2,6-dioxo-4-thioxo-1,3,5-triazinan-1-yl)-4-fluoro-phenyl]-5-methyl-4H-isoxazole-5-carboxylate] | 25% | 55% | 29% | 38% |  |  |  | 
C#CCN1C(=O)C(F)(F)Oc2cc(F)c(-n3c(=O)n(C)c(=S)n(C)c3=O)cc21 [Herbicide B, trifludimoxazin] |  |  |  |  | 7% | 11% | 31% | 38%
CC(C)N(C)S(=O)(=O)NC(=O)c1cc(-n2c(=O)cc(C(F)(F)F)n(C)c2=O)c(F)cc1Cl [Herbicide E, saflufenacil] | 17% | 27% | 65% | 54% |  |  |  | 
